Data taken from ChEMBL document CHEMBL3352140, “Targeting the PPM1D phenotype; 2,4-bisarylthiazoles cause highly selective apoptosis in PPM1D amplified cell-lines” (Bioorg Med Chem Lett, 2014).
The source made the active and inactive calls. The calls are words filed in the database; no cut-off is given here.

Assays:
[1] = Anticancer activity against human SMOV2 cells after 3 days incubation by SRB proliferation assay; assay type: functional; conditions: SMOV2, 72 h
[2] = target: T1, Protein phosphatase 1D (Homo sapiens, UniProt O15297); assay: Inhibition of PPM1D (unknown origin) phosphatase activity using peptide substrate TDDEMT*GY*VAT by malachite green/molybdate based assay
T1 sequence (O15297 whole entry): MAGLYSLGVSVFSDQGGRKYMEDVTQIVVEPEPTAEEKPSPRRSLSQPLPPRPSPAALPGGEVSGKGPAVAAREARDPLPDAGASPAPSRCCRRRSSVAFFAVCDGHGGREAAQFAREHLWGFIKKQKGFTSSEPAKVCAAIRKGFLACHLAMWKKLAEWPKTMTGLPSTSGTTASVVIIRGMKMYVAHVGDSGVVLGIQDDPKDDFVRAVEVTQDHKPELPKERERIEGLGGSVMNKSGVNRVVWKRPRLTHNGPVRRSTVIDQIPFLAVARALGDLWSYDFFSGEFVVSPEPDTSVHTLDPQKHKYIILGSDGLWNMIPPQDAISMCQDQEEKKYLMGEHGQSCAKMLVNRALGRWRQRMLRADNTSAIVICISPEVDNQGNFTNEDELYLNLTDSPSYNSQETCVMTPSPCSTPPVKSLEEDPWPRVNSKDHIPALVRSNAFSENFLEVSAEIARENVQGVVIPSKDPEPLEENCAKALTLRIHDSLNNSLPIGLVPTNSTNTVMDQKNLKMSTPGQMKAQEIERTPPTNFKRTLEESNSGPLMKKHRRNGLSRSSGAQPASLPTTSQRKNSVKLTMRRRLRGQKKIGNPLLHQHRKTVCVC

[3] = Anticancer activity against human TOV21G cells after 3 days incubation by SRB proliferation assay; assay type: functional; conditions: 72 h
[4] = Anticancer activity against human TOV21G cells after 5 days incubation by SRB proliferation assay; assay type: functional; conditions: 120 h
[5] = Anticancer activity against human SMOV2 cells after 5 days incubation by SRB proliferation assay; assay type: functional; conditions: SMOV2, 120 h
[6] = test system: MCF7; assay: Anticancer activity against PPM1D amplified human MCF7 cells after 5 days incubation by SRB proliferation assay; assay type: functional; conditions: MCF7, 120 h
[7] = Anticancer activity against PPM1D non-amplified human CAMA1 cells after 5 days incubation by SRB proliferation assay; assay type: functional; conditions: CAMA-1, 120 h
[8] = Anticancer activity against PPM1D non-amplified human SMOV2 cells after 5 days incubation by SRB proliferation assay; assay type: functional; conditions: SMOV2, 120 h
[9] = test system: HeLa; assay: Anticancer activity against PPM1D non-amplified human HeLa cells after 5 days incubation by SRB proliferation assay; assay type: functional; conditions: 120 h
[10] = Anticancer activity against PPM1D amplified human KPL1 cells after 5 days incubation by SRB proliferation assay; assay type: functional; conditions: KPL-1, 120 h
[11] = Anticancer activity against […] human TOV21G cells after 5 days incubation by SRB proliferation assay; assay type: functional; conditions: 120 h
[12] = test system: TOV21G; assay: Induction of apoptosis in […] human TOV21G cells assessed as increase in PARP cleavage at 1.25 to 5 uM after 24 hrs by Western blot analysis; assay type: functional, cell-based
[13] = test system: SMOV2; assay: Induction of apoptosis in human SMOV2 cells assessed as increase in PARP cleavage at 1.25 to 5 uM after 24 hrs by Western blot analysis; assay type: functional, cell-based
[14] = target: T2, Protein phosphatase 1D (Homo sapiens) (UniProt O15297); conditions: SMOV2, 1.25 to 5 uM
T2 sequence (whole entry): T1 sequence (O15297 whole entry)
Description: Inhibition of PPM1D in human SMOV2 cells assessed as increase in P-S15-p53 level at 1.25 to 5 uM after 24 hrs by Western blot analysis

[15] = target: T2, Protein phosphatase 1D (Homo sapiens); conditions: TOV21G, 1.25 to 5 uM
Description: Inhibition of PPM1D in non-amplified human TOV21G cells assessed as increase in P-S15-p53 level at 1.25 to 5 uM after 24 hrs by Western blot analysis

IC50 [2]	Compound	GI50 [1]	GI50 [3]	further results
< 20 µM	Cc1cc(F)ccc1-c1nc(-c2ccc3[nH]c(=O)n(CCN(C)C)c3c2)cs1	3 nM	> 50 µM	–
< 20 µM	O=c1[nH]c2ccc(-c3csc(-c4cccc(F)c4)n3)cc2o1	–	–	GI50 [4]: > 50 µM; GI50 [5]: 850 nM
< 20 µM	CN(C)Cc1cc(F)ccc1-c1nc(-c2ccc3[nH]c(=O)oc3c2)cs1	10 nM	> 50 µM	–
< 20 µM	COc1cc(F)ccc1-c1nc(-c2ccc3[nH]c(=O)oc3c2)cs1	5700 nM	> 50 µM	–
> 100 µM	Cc1cc(F)ccc1-c1nc(-c2ccc3[nH]c(=O)oc3c2)cs1	2 nM	> 50 µM	–
< 20 µM	CCc1cc(F)ccc1-c1nc(-c2ccc3[nH]c(=O)oc3c2)cs1	13 nM	> 50 µM	–
< 20 µM	O=c1[nH]c2ccc(-c3csc(-c4ccc(F)cc4COCCN4CCCC4)n3)cc2o1	13 nM	> 50 µM	–
< 20 µM	O=c1[nH]c2ccc(-c3csc(-c4ccc(F)c(F)c4)n3)cc2o1	290 nM	> 50 µM	–
< 20 µM	Cc1cc(F)ccc1-c1nc(-c2ccc3c(c2)CC(=O)N3)cs1	2 nM	> 50 µM	–
< 20 µM	CN(C)CCc1cc(F)ccc1-c1nc(-c2ccc3[nH]c(=O)oc3c2)cs1	40 nM	> 50 µM	–
< 20 µM	Cc1cc(-c2nc(-c3ccc4[nH]c(=O)oc4c3)cs2)ccc1F	250 nM	> 50 µM	–
< 20 µM	COCCOCc1cc(F)ccc1-c1nc(-c2ccc3[nH]c(=O)[nH]c3c2)cs1	13 nM	> 50 µM	GI50 [6]: 5 nM; GI50 [7]: 15 µM; GI50 [8]: 20 µM; GI50 [9]: 3.9 µM; GI50 [10]: 10 nM; GI50 [11]: 5.6 µM
< 20 µM	Cc1ccc(-c2nc(-c3ccc4[nH]c(=O)oc4c3)cs2)cc1	–	–	GI50 [4]: > 50 µM; GI50 [5]: 24000 nM
< 20 µM	O=c1[nH]c2ccc(-c3csc(-c4ccc(Cl)cc4)n3)cc2o1	–	–	GI50 [4]: > 50 µM; GI50 [5]: 630 nM
< 20 µM	NCCOCc1cc(F)ccc1-c1nc(-c2ccc3[nH]c(=O)oc3c2)cs1	3 nM	> 50 µM	–
< 20 µM	O=c1[nH]c2ccc(-c3csc(-c4ccc(F)c(O)c4)n3)cc2o1	1600 nM	> 50 µM	–
< 20 µM	N#Cc1ccc(-c2nc(-c3ccc4[nH]c(=O)oc4c3)cs2)cc1	–	–	GI50 [4]: > 50 µM; GI50 [5]: 2000 nM
< 20 µM	O=c1[nH]c2ccc(-c3csc(-c4ccc(F)c(C(F)(F)F)c4)n3)cc2o1	> 50000 nM	> 50 µM	–
< 20 µM	Cc1cc(F)ccc1-c1nc(-c2ccc3c(c2)[nH]c(=O)n3CCN(C)C)cs1	> 50000 nM	> 50 µM	–
23 µM	O=c1[nH]c2ccc(-c3csc(-c4ccc(F)cc4)n3)cc2o1	130 nM	> 50 µM	Activity [12]: inactive; GI50 [4]: > 50 µM; Activity [13]: Active; inhibition [14]: Active; inhibition [15]: inactive; GI50 [5]: 10 nM
< 20 µM	O=c1[nH]c2ccc(-c3csc(-c4ccccc4)n3)cc2o1	–	–	GI50 [4]: > 50 µM; GI50 [5]: 2000 nM
< 20 µM	COCCOCc1cc(F)ccc1-c1nc(-c2ccc3[nH]c(=O)oc3c2)cs1	2 nM	> 50 µM	–
< 20 µM	O=c1[nH]c2ccc(-c3csc(-c4ccc(F)cc4CO)n3)cc2o1	23 nM	> 50 µM	–
< 20 µM	Cc1cc(F)ccc1-c1nc(-c2ccc3[nH]c(=O)[nH]c3c2)cs1	1 nM	> 50 µM	–
< 20 µM	O=c1[nH]c2ccc(-c3csc(-c4ccc(F)cc4CN4CCOCC4)n3)cc2o1	520 nM	> 50 µM	–
< 20 µM	O=c1[nH]c2ccc(-c3csc(-c4ccncc4)n3)cc2o1	–	–	GI50 [4]: > 50 µM; GI50 [5]: 2800 nM
